Source: patent publication US20240181014A1 (priority 2021, published 2024)
Where two headings read alike, the source gives them in different places.

Assays:
[1] = compounded ALA (injection, suppository, topical, troche; intravenous); cited from earlier work
[2] = test system: post-COVID-19 syndrome patients; assay type: in vivo, human

Compound | safety concerns in available clinical reports [1] | blood oxygenation value pO2 at end of treatment ([2]; Example 4, patient) [mmHg] | status at control visit ([2]; Example 4, patient) | external oxygen supply ([2]; Example 4, patient, needed intermitted oxygenation before) | blood oxygenation value pO2 at room air ([2]; Example 4, patient, pO2 92 mmHg before) [mmHg] | breathing at end of treatment ([2]; Example 4, patient, severe difficulties to breath before) | breathing at end of treatment ([2]; Example 5, patient) | status at control visit ([2]; Example 5, patient) | blood oxygenation value pO2 at room air at end of treatment ([2]; Example 5, patient, pO2 93 mmHg before) [mmHg] | ability to work at end of treatment ([2]; Example 5, patient, unable to work due to extreme fatigue and cough before)
O=C(O)CCCC[C@@H]1CCSS1 [ALA, (R)-5-(1,2-Dithiolan-3-yl)pentanoic acid] | no serious safety concerns | – | – | – | – | – | – | – | – | –
CC[C@H](C)[C@H](NC(=O)[C@H](CO)NC(=O)[C@H](CC(N)=O)NC(=O)[C@H](CC(C)C)NC(=O)[C@H](Cc1ccc(O)cc1)NC(=O)[C@H](CCCCN)NC(=O)[C@H](CCCCN)NC(=O)[C@@H](NC(=O)[C@H](C)NC(=O)[C@H](CCSC)NC(=O)[C@H](CCC(N)=O)NC(=O)[C@H](CCCCN)NC(=O)[C@H](CCCNC(=N)N)NC(=O)[C@H](CC(C)C)NC(=O)[C@H](CCCNC(=N)N)NC(=O)[C@@H](NC(=O)[C@H](Cc1ccc(O)cc1)NC(=O)[C@H](CC(N)=O)NC(=O)[C@H](CC(=O)O)NC(=O)[C@@H](NC(=O)[C@H](Cc1ccccc1)NC(=O)[C@@H](NC(=O)[C@H](C)NC(=O)[C@H](CC(=O)O)NC(=O)[C@H](CO)NC(=O)[C@@H](N)Cc1c[nH]cn1)C(C)C)[C@@H](C)O)[C@@H](C)O)C(C)C)C(=O)N[C@@H](CC(C)C)C(=O)N[C@@H](CC(N)=O)C(N)=O [Aviptadil] | – | 97 | considered healthy | off external oxygen supply | 96 | breathed normally | breathed normally | considered healthy without any further post-COVID symptoms | 98 | returned to their professional work
